Assay results reported in patent publication US12286443B2, “Bycyclic JAK inhibitors and uses thereof” (Insilico Medicine IP Limited, priority 2019, dated 2025).

tested on: Hut-78 cells; experiment: Inhibition in Hut-78 cells (IL-2 stimulated, HTRF); format: cell-based; conditions: Homo sapiens, HuT78, read-out: Hut-78 cells IC50 (μM)
Experimental: Exemplary compounds were assayed to determine potency in inhibiting Hut-78 cells by determining IC50 values.
Hut-78 cells were cultures in IMDM+20% FBS medium. Cells were maintained in log phase before the assay. Cell pellets were collected and resuspended in serum-free and phenol-free RPMI 1640 medium. 40,000 cells/well (10 μL) were seeded in each well of a 384-well plate and incubated with and without compound for 2 hours at 37° C. and 5% C02. IL-2 was added (2 μL, final concentration 100 ng/mL) and the mixture was incubated for 10 min. Cells were lysed by adding 4 μL labeled antibodies and the mixture was incubated overnight. The plate was read using the HTRF protocol on an Envision plate reader. The data was analyzed using XL-fit software (Supplier: ID business solutions Ltd.; Software version: XL fit 5.0). Inhibition %=(Max−Sample value)/(Max−Min)*100.
In the table, “A” indicates an IC50 of less than 0.5 μM, “B” indicates an IC50 range from 0.5 μM to 1 μM; and “C” indicates an IC50 range from 1 μM to 10 μM. Also, “na” indicates data is not available.

Row | SMILES | IC50
1 | O=C(NCC(F)(F)F)c1noc2c1CN(c1ncnc3[nH]ccc13)CC2 [Compound 178] | 0.5 to 1 µM

same assay, conditions: Homo sapiens, HuT78; compound 2 hours at 37° C., then IL-2 100 ng/mL 10 min; HTRF; read-out: Hut-78 cells IC50

Row | IC50 | SMILES
2 | < 0.5 µM | O=C(N[C@H]1C[C@@](O)(C(F)(F)F)C1)c1noc2c1CN(c1ncnc3[nH]ccc13)CC2 [Compound 202]
3 | 1 to 10 µM | O=C(NCC1CC1(F)F)c1noc2c1CN(c1ncnc3[nH]ccc13)CC2 (stereo not shown) [Compound 179]

Further lines, the molecule ahead of its results:

Row | SMILES | IC50
4 | CC1(CNC(=O)c2noc3c2CN(c2ncnc4[nH]ccc24)CC3)CC(F)(F)C1 [Compound 199] | < 0.5 µM
5 | O=C(NCCC(F)(F)F)c1noc2c1CN(c1ncnc3[nH]ccc13)CC21CC1 [Compound 192] | 0.5 to 1 µM

target: T1, TYK2 (Homo sapiens, UniProt P29597); experiment: Inhibition of TYK2 kinase, LANCE Ultra TR-FRET assay; format: biochemical; conditions: 4 nM TYK2, 2x ATP 30 μM, 15 min pre-incubation, 90 min reaction, 23° C., read-out: tyk IC50
T1 construct: purchased Invitrogen PR8440C
T1 sequence (P29597 whole entry): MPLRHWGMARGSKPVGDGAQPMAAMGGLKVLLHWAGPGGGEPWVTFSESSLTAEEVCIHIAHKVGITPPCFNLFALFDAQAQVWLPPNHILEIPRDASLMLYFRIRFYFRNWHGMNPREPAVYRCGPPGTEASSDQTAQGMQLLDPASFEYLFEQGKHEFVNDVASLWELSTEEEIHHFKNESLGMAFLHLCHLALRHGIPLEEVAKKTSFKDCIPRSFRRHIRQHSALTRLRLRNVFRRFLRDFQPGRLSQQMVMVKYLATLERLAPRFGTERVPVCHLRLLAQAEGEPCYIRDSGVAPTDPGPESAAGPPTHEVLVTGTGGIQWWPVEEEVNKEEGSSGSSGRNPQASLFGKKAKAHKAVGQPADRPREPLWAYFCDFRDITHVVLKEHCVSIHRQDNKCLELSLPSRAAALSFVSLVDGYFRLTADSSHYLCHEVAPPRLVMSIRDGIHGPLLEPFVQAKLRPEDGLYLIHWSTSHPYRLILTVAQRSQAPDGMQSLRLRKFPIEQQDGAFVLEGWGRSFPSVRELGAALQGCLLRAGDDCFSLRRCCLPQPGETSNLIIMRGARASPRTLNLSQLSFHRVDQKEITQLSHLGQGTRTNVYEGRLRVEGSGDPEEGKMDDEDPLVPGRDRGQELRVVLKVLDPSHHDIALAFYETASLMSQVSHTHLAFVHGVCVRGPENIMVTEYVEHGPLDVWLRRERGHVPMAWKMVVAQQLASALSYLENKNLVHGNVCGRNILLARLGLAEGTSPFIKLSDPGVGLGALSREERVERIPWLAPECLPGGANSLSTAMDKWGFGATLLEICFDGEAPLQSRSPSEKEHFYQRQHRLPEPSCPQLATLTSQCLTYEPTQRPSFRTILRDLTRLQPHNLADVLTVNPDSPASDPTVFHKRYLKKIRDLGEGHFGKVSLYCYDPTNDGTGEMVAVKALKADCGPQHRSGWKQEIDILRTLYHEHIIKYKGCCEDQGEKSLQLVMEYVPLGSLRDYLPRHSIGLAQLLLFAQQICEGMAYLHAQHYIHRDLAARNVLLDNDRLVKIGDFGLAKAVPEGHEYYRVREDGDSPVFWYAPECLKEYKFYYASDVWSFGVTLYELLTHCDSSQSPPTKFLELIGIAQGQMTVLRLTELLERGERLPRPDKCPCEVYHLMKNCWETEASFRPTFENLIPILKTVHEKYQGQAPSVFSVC
Experimental: (§1) Exemplary compounds were assayed to determine potency in inhibiting activity of JAK1-3 and TYK2 kinases by determining IC50 values.
(§2) The sources of test materials and equipment are as follows: JAK1 (Invitrogen, Cat. No PV4775), JAK2 (Invitrogen, Cat. No PV4210), JAK3 (Invitrogen, Cat. No PV4080), TYK2 (Invitrogen, Cat. No PR8440C), ATP (Sigma, Cat. No. A7699-1G), DMSO (Sigma, Cat. No. D2650), DTT (Sigma, Cat. No. 43815), 384 wells_compound plate (Greiner, Cat. No. 781280), 384 wells_assay plate (Perkin Elmer, Cat. No. 6007299), LANCE Ultra ULight™-JAK-1 peptide (Perkin Elmer, Cat. No. TRF0121), LANCET™ Eu-W1024 Anti-phosphotyrosine (PT66) (Perkin Elmer, Cat. No. AD0069), LANCET™ Detection Buffer(Perkin Elmer, Cat. No. CR97-100).
(§3) The concentrations of test compounds varied from 100 μM to 1.7 nM with 3-fold dilution, 11 points, in duplicates while the concentrations of the reference compound, Tofacitinib, varied from 1 μM to 0.017 nM with 3-fold dilution, 11 points, in duplicates.
(§4) The assay buffer contained 50 mM HEPES (pH 7.5), 0.01% Brij-35, 10 mM MgCl2, 1 mM EDTA, 2 mM DTT. Incubations were carried out at 23° C.
(§5) Prior to the assay, enzyme, peptide substrate and serially diluted test compounds were pre-incubated together in assay buffer (5 μL) for 15 minutes (peptide substrate concentration: 50 nM; JAK enzyme concentrations: 2 nM JAK1; […]; […] and 4 nM TYK2). And the assay was initiated by the addition of 5 μL assay buffer containing 2× final ATP concentration (these are the 2×ATP concentrations: 76 μM JAK1; 24 μM JAK2; 8 μM JAK3 and 30 μM TYK2). Following the 90-minute incubation, antibody conjugated with Eu is dissolved in detection buffer to add into wells and then incubated for 60 minutes. The 10 μL detection buffer contains EDTA to stop the enzymatic reaction. The plate is analyzed by Perkin Elmer Envision on TR-FRET mode. The high ratio of 665/615 represents no inhibition of kinase reaction while the low ratio of 665/615 represents complete inhibition of kinase reaction.
(§6) Curves are fit by XLFIT5 as inhibition rate % vs. log [compound concentration] using 4 parameters logistic model 205.
(§7) In the table, “A” indicates an IC50 of less than 100 nM, “B” indicates an IC50 range from 100 nM to 500 nM; “C” indicates an IC50 range from 500 nM to 2 μM; and “D” indicates an IC50 greater than 2 μM. Also, “na” indicates data is not available.

Row | IC50 | SMILES
6 | 500 to 2000 nM | O=C(N[C@H]1C[C@@](O)(C(F)(F)F)C1)c1noc2c1CN(c1ncnc3[nH]ccc13)CC2 [Compound 202]
7 | > 2000 nM | O=C(NCC1CC1(F)F)c1noc2c1CN(c1ncnc3[nH]ccc13)CC2 (stereo not shown) [Compound 179]

Further lines, the molecule ahead of its results:

Row | SMILES | IC50
8 | O=C(NCC(F)(F)F)c1noc2c1CN(c1ncnc3[nH]ccc13)CC2 [Compound 178] | 500 to 2000 nM
9 | CC1(CNC(=O)c2noc3c2CN(c2ncnc4[nH]ccc24)CC3)CC(F)(F)C1 [Compound 199] | 500 to 2000 nM
10 | O=C(NCCC(F)(F)F)c1noc2c1CN(c1ncnc3[nH]ccc13)CC21CC1 [Compound 192] | > 2000 nM

target: T2, JAK3 (Homo sapiens, UniProt P52333); experiment: Inhibition of JAK3 kinase, LANCE Ultra TR-FRET assay; format: biochemical; conditions: 2x ATP 8 μM, 15 min pre-incubation, 90 min reaction, 23° C.
T2 construct: purchased Invitrogen PV4080
T2 sequence (P52333 1-1124): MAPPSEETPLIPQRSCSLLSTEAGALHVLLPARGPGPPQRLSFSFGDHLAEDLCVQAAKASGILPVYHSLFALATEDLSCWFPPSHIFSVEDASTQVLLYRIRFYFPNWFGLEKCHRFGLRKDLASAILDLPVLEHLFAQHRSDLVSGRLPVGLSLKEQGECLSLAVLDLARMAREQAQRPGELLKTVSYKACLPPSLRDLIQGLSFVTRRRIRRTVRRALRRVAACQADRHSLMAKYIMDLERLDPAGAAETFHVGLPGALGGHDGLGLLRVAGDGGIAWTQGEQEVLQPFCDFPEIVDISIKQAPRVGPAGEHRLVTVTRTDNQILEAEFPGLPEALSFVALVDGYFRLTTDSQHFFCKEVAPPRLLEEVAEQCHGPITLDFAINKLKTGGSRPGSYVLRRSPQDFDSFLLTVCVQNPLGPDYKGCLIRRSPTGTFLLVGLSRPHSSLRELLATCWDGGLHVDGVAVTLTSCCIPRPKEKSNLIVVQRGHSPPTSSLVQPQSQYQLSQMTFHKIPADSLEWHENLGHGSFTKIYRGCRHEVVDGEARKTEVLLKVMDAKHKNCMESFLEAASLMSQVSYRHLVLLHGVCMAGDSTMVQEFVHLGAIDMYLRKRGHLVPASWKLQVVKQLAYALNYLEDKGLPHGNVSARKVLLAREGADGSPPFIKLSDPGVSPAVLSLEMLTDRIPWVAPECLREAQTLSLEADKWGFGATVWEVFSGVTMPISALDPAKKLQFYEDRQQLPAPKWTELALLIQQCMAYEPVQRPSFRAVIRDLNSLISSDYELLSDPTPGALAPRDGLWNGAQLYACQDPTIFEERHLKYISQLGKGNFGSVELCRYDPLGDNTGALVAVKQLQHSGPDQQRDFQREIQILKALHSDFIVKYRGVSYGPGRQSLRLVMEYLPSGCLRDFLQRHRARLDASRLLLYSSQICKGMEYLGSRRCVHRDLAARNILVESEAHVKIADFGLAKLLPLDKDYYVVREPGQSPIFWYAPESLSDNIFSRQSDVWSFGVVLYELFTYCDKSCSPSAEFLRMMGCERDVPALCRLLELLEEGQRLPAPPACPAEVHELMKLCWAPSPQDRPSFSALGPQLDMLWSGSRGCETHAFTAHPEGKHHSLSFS
Experimental: as §1, §2, §3, §4, §5, §6, §7

Row | IC50 | SMILES
11 | < 100 nM | O=C(N[C@H]1C[C@@](O)(C(F)(F)F)C1)c1noc2c1CN(c1ncnc3[nH]ccc13)CC2 [Compound 202]
12 | < 100 nM | O=C(NCC1CC1(F)F)c1noc2c1CN(c1ncnc3[nH]ccc13)CC2 (stereo not shown) [Compound 179]

Continued, molecule first:

Row | SMILES | IC50
13 | O=C(NCC(F)(F)F)c1noc2c1CN(c1ncnc3[nH]ccc13)CC2 [Compound 178] | < 100 nM
14 | CC1(CNC(=O)c2noc3c2CN(c2ncnc4[nH]ccc24)CC3)CC(F)(F)C1 [Compound 199] | < 100 nM
15 | O=C(NCCC(F)(F)F)c1noc2c1CN(c1ncnc3[nH]ccc13)CC21CC1 [Compound 192] | < 100 nM

target: T3, JAK1 (Homo sapiens, UniProt P23458); experiment: Inhibition of JAK1 kinase, LANCE Ultra TR-FRET assay; format: biochemical; conditions: 2 nM JAK1, 2x ATP 76 μM, 15 min pre-incubation, 90 min reaction, 23° C.
T3 construct: purchased Invitrogen PV4775
T3 sequence (P23458 whole entry): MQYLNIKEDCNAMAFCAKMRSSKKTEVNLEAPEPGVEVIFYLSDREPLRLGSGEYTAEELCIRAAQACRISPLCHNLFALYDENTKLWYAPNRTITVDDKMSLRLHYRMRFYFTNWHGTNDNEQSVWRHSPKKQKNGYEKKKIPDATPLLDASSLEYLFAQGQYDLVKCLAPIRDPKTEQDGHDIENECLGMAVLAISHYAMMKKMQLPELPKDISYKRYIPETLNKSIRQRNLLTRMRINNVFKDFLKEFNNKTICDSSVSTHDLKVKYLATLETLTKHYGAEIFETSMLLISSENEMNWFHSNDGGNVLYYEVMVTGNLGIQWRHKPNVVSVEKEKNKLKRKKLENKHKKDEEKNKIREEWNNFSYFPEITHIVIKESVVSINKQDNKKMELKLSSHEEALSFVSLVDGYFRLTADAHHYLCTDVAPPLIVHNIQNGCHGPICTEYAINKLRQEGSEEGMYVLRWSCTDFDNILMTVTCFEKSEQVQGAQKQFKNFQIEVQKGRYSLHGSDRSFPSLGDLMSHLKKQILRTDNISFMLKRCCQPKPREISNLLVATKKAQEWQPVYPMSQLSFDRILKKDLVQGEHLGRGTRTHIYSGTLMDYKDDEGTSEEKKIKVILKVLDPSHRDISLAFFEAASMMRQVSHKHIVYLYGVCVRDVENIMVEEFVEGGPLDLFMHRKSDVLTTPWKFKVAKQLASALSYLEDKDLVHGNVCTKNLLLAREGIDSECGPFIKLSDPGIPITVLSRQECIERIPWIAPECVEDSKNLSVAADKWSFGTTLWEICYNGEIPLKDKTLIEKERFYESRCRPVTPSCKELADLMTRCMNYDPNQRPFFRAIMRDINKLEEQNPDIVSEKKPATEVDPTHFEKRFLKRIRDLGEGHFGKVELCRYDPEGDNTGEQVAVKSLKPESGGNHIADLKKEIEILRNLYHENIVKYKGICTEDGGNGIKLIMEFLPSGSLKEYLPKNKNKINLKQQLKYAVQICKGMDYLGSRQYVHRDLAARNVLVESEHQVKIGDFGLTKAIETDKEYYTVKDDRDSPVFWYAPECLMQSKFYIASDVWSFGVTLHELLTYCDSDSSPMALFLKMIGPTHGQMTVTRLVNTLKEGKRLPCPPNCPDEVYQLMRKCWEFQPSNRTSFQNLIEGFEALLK
Experimental: as §1, §2, §3, §4, §5, §6, §7

Row | IC50 | SMILES
16 | < 100 nM | O=C(N[C@H]1C[C@@](O)(C(F)(F)F)C1)c1noc2c1CN(c1ncnc3[nH]ccc13)CC2 [Compound 202]
17 | 100 to 500 nM | O=C(NCC1CC1(F)F)c1noc2c1CN(c1ncnc3[nH]ccc13)CC2 (stereo not shown) [Compound 179]

Continued, molecule first:

Row | SMILES | IC50
18 | O=C(NCC(F)(F)F)c1noc2c1CN(c1ncnc3[nH]ccc13)CC2 [Compound 178] | < 100 nM
19 | CC1(CNC(=O)c2noc3c2CN(c2ncnc4[nH]ccc24)CC3)CC(F)(F)C1 [Compound 199] | < 100 nM
20 | O=C(NCCC(F)(F)F)c1noc2c1CN(c1ncnc3[nH]ccc13)CC21CC1 [Compound 192] | < 100 nM

target: T4, JAK2 (Homo sapiens, UniProt O60674); experiment: Inhibition of JAK2 kinase, LANCE Ultra TR-FRET assay; format: biochemical; conditions: 2x ATP 24 μM, 15 min pre-incubation, 90 min reaction, 23° C.
T4 construct: purchased Invitrogen PV4210
T4 sequence (O60674 whole entry): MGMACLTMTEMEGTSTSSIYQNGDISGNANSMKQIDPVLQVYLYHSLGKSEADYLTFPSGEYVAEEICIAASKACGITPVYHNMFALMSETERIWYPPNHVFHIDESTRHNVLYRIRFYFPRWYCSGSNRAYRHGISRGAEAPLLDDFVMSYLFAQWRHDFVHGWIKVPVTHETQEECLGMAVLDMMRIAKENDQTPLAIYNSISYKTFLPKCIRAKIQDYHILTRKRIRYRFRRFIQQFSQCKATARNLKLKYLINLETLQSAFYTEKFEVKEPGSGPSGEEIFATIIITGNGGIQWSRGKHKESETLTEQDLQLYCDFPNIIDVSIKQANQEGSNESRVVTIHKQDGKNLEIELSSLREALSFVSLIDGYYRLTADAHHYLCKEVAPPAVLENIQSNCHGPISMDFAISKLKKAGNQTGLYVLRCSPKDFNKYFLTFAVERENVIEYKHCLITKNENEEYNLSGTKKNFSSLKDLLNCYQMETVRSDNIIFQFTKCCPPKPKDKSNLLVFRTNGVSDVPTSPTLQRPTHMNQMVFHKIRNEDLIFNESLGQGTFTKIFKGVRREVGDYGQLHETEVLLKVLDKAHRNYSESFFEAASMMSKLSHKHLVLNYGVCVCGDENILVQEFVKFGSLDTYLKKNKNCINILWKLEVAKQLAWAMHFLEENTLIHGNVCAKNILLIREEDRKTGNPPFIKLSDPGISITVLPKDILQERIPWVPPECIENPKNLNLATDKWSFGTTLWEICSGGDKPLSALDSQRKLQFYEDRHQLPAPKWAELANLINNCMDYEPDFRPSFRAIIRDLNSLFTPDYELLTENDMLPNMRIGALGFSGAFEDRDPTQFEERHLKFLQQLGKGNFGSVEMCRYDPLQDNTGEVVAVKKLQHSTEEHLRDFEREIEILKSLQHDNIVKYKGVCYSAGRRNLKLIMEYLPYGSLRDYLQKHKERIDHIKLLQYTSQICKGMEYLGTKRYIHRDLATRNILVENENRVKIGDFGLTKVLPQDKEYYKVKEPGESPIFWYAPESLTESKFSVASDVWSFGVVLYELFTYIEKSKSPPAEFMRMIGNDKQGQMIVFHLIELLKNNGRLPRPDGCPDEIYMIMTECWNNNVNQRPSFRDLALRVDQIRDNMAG
Experimental: as §1, §2, §3, §4, §5, §6, §7

Row | IC50 | SMILES
21 | < 100 nM | O=C(N[C@H]1C[C@@](O)(C(F)(F)F)C1)c1noc2c1CN(c1ncnc3[nH]ccc13)CC2 [Compound 202]
22 | 100 to 500 nM | O=C(NCC1CC1(F)F)c1noc2c1CN(c1ncnc3[nH]ccc13)CC2 (stereo not shown) [Compound 179]

More lines, now with the values behind:

Row | SMILES | IC50
23 | O=C(NCC(F)(F)F)c1noc2c1CN(c1ncnc3[nH]ccc13)CC2 [Compound 178] | < 100 nM
24 | CC1(CNC(=O)c2noc3c2CN(c2ncnc4[nH]ccc24)CC3)CC(F)(F)C1 [Compound 199] | 100 to 500 nM
25 | O=C(NCCC(F)(F)F)c1noc2c1CN(c1ncnc3[nH]ccc13)CC21CC1 [Compound 192] | 100 to 500 nM
